Data on 39 compounds can be found in US12617773B2, “Azetidin-3-ylmethanol derivatives as CCR6 receptor modulators” (Idorsia Pharmaceuticals Ltd, priority 2020, dated 2026).

The structures appear in SMILES notation.

This experiment concerns the target T1, human CCR6 (Homo sapiens, UniProt P51684).
T1 construct: expressed in transfected cells; host or cells: HEK-293
T1 sequence (P51684 1-374): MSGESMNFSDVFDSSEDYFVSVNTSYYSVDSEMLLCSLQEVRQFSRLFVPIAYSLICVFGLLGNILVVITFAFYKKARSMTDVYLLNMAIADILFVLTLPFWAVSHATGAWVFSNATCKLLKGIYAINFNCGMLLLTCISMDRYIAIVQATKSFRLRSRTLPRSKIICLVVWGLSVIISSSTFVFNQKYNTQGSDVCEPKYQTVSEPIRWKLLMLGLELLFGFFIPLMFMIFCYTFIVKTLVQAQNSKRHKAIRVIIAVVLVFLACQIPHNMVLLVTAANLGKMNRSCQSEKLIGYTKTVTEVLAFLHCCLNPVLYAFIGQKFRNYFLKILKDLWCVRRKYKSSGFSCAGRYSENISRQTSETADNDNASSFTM
Kind of experiment: FLIPR assay (inhibition of CCL20-induced calcium signal). Format: cell-based. Particulars: HEK-293 cells expressing human CCR6; mean values where determined several times; read-out: FLIPR IC50. The gist of the method:
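Dye-loaded HEK-293 cells expressing human CCR6 were preincubated with compound for 30 min at room temperature in the dark, then challenged with 10 nM CCL20 (final). Fluorescence was tracked on FLIPR, and baseline-subtracted peak emission over base after agonist addition gave inhibition dose-response curves for IC50.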
`CC(C)c1ccc([C@](O)(c2cncc(C3CCOCC3)c2)C2(C)CN(C)C2)cc1` [Example 314]: the IC50 is 111 nM.

As to `CC(C)c1ccc([C@](O)(c2cncc(C3CCN(c4ccccn4)CC3)c2)C2(C)CN(C)C2)cc1` [Example 315, (R)-(1,3-Dimethyl-azetidin-3-yl)-(4-isopropyl-phenyl)-(3′,4′,5′,6′-tetrahydro-2′H-[2,1′; 4′,3″]terpyridin-5″-yl)-methanol], the IC50 stood at 23.6 nM.

For `CC(C)c1ccc([C@](O)(c2cncc(C3CCCO3)c2)C2(C)CN(C)C2)cc1` (stereo partly drawn) [Example 318, (R)-(1,3-Dimethyl-azetidin-3-yl)-(4-isopropyl-phenyl)-[5-(tetrahydro-furan-2-yl)-pyridin-3-yl]-methanol], the IC50 stood at 154 nM.

On to `CC1CCC(c2cncc([C@@](O)(c3ccc(C(C)C)cc3)C3(C)CN(C)C3)c2)O1` (stereo partly drawn) [Example 319], for which the half-maximal inhibitory concentration (IC50) was 94.4 nM.

As to `CC(C)c1ccc([C@](O)(c2cncc(C3CCC(C)(C)O3)c2)C2(C)CN(C)C2)cc1` (stereo partly drawn) [Example 320], the IC50 came out at 86 nM.

For `CC(C)c1ccc([C@](O)(c2cncc(CC(F)(F)CO)c2)C2(C)CN(C)C2)cc1` [Example 321, 3-{5-[(R)-(1,3-Dimethyl-azetidin-3-yl)-hydroxy-(4-isopropyl-phenyl)-methyl]-pyridin-3-yl}-2,2-difluoro-propan-1-ol], the half-maximal inhibitory concentration (IC50) amounted to 273 nM.

With `Cc1cnc(-c2cncc([C@@](O)(c3ccc(C(C)C)cc3)C3(C)CN(C)C3)c2)o1` [Example 322, (R)-(1,3-Dimethyl-azetidin-3-yl)-(4-isopropyl-phenyl)-[5-(5-methyl-oxazol-2-yl)-pyridin-3-yl]-methanol], the IC50 worked out at 49.9 nM.

For `CC(C)c1ccc([C@](O)(c2cncc(-c3ncc(C4CCOCC4)o3)c2)C2(C)CN(C)C2)cc1` [Example 323, (R)-(1,3-Dimethyl-azetidin-3-yl)-(4-isopropyl-phenyl)-{5-[5-(tetrahydro-pyran-4-yl)-oxazol-2-yl]-pyridin-3-yl}-methanol], the IC50 amounted to 67.8 nM.

Take `CC(C)c1ccc([C@](O)(c2cncc(COc3ccc(F)cc3)c2)C2(C)CN(C)C2)cc1` [Example 324, (R)-(1,3-Dimethyl-azetidin-3-yl)-[5-(4-fluoro-phenoxymethyl)-pyridin-3-yl]-(4-isopropyl-phenyl)-methanol]: the IC50 was found to be 15 nM.

Turning to `CC(C)NC(=O)OCc1cncc([C@@](O)(c2ccc(C(C)C)cc2)C2(C)CN(C)C2)c1` [Example 325, Isopropyl-carbamic acid 5-[(R)-(1,3-dimethyl-azetidin-3-yl)-hydroxy-(4-isopropyl-phenyl)-methyl]-pyridin-3-ylmethyl ester], the IC50 was 595 nM.

Consider `CC(C)c1ccc([C@](O)(c2cncc(CCOCc3ccccc3)c2)C2(C)CN(C)C2)cc1` [Example 326, (R)-[5-(2-Benzyloxy-ethyl)-pyridin-3-yl]-(1,3-dimethyl-azetidin-3-yl)-(4-isopropyl-phenyl)-methanol], for which the IC50 came to 83.3 nM.

For the compound `CC(C)c1ccc([C@](O)(c2cncc(C3CCC(C)(O)CC3)c2)C2(C)CN(C)C2)cc1` (stereo partly drawn) [Example 327, 4-{5-[(R)-(1,3-Dimethyl-azetidin-3-yl)-hydroxy-(4-isopropyl-phenyl)-methyl]-pyridin-3-yl}-1-methyl-cyclohexanol], the IC50 is 168 nM.

On to `CC(C)c1ccc([C@](O)(c2cncc(C3CC3C(C)(C)O)c2)C2(C)CN(C)C2)cc1` (stereo partly drawn) [Example 328, 2-(2-{5-[(R)-(1,3-Dimethyl-azetidin-3-yl)-hydroxy-(4-isopropyl-phenyl)-methyl]-pyridin-3-yl}-cyclopropyl)-propan-2-ol], for which the IC50 amounted to 187 nM.

For `CC(C)c1ccc([C@](O)(c2ccnc(-c3noc(C4CCOCC4)n3)c2)C2(C)CN(C)C2)cc1` [Example 329, (S)-(1,3-Dimethyl-azetidin-3-yl)-(4-isopropyl-phenyl)-{2-[5-(tetrahydro-pyran-4-yl)-[1,2,4]oxadiazol-3-yl]-pyridin-4-yl}-methanol], the IC50 was found to be 485 nM.

On to `CC(C)c1ccc(C(O)(c2cnc(N3CCCC3)nc2)C2(C)CN(C)C2)cc1` (stereo not drawn) [Example 330, (1,3-Dimethyl-azetidin-3-yl)-(4-isopropyl-phenyl)-(2-pyrrolidin-1-yl-pyrimidin-5-yl)-methanol], for which the IC50 turned out to be 143 nM.

For `CC(C)c1ccc(C(O)(c2cncc(N3CCCC3)n2)C2(C)CN(C)C2)cc1` (stereo not drawn) [Example 331, (1,3-Dimethyl-azetidin-3-yl)-(4-isopropyl-phenyl)-(6-pyrrolidin-1-yl-pyrazin-2-yl)-methanol], the IC50 came to 50.1 nM.

Consider `[2H]C([2H])([2H])C(=O)NC1(c2nc(-c3cncc([C@@](O)(c4ccc(C(C)C)cc4)C4(C)CN(C)C4)c3)no2)CC1` [Example 332], for which the IC50 was found to be 290 nM.

Take `[2H]C([2H])([2H])C(=O)N(C)C1(c2nc(-c3cncc([C@@](O)(c4ccc(C(C)C)cc4)C4(C)CN(C)C4)c3)no2)CC1` [Example 333]: the IC50 was 113 nM.

`[2H]C([2H])([2H])C(=O)N(C)Cc1nc(-c2cncc([C@@](O)(c3ccc(C(C)C)cc3)C3(C)CN(C)C3)c2)no1` [Example 334]: the IC50 was 216 nM.

With `CC(C)c1ccc([C@](O)(c2cncc(-c3noc(CNC(=O)CO)n3)c2)C2(C)CN(C)C2)cc1` [Example 335], the IC50 is 337 nM.

For the compound `[2H]C([2H])([2H])C(=O)NCc1nc(-c2cncc([C@@](O)(c3ccc(C(C)C)cc3)C3(C)CN(C)C3)c2)no1` [Example 336], the IC50 was 207 nM.

Regarding `CC(C)c1ccc([C@](O)(c2cncc(-c3noc(CC(C)(C)O)n3)c2)C2(C)CN(C(C)C)C2)cc1` [Example 337, 1-(3-{5-[(R)-Hydroxy-(1-isopropyl-3-methyl-azetidin-3-yl)-(4-isopropyl-phenyl)-methyl]-pyridin-3-yl}-[1,2,4]oxadiazol-5-yl)-2-methyl-propan-2-ol], the IC50 stood at 95.1 nM.

On to `CCN1CC(C)([C@](O)(c2ccc(C(C)C)cc2)c2cncc(-c3noc(CC(C)(C)O)n3)c2)C1` [Example 338, 1-(3-{5-[(R)-(1-Ethyl-3-methyl-azetidin-3-yl)-hydroxy-(4-isopropyl-phenyl)-methyl]-pyridin-3-yl}-[1,2,4]oxadiazol-5-yl)-2-methyl-propan-2-ol], for which the IC50 is 93.8 nM.

As to `CC(C)c1ccc([C@](O)(c2cncc(-c3noc(C(C)(C)O)n3)c2)C2(C)CN(C(C)C)C2)cc1` [Example 339, 2-(3-{5-[(R)-Hydroxy-(1-isopropyl-3-methyl-azetidin-3-yl)-(4-isopropyl-phenyl)-methyl]-pyridin-3-yl}-[1,2,4]oxadiazol-5-yl)-propan-2-ol], the IC50 was 100 nM.

In the case of `CCN1CC(C)([C@](O)(c2ccc(C(C)C)cc2)c2cncc(-c3noc(C(C)(C)O)n3)c2)C1` [Example 340, 2-(3-{5-[(R)-(1-Ethyl-3-methyl-azetidin-3-yl)-hydroxy-(4-isopropyl-phenyl)-methyl]-pyridin-3-yl}-[1,2,4]oxadiazol-5-yl)-propan-2-ol], the IC50 is 79.4 nM.

For `CC(C)c1ccc([C@](O)(c2cncc(-c3nc(C4CCN(C(=O)OCc5ccccc5)CC4)no3)c2)C2(C)CN(C)C2)cc1` [Example 341], the IC50 turned out to be 66.6 nM.

In the case of `CC(=O)N1CCC(c2noc(-c3cncc([C@@](O)(c4ccc(C(C)C)cc4)C4(C)CN(C)C4)c3)n2)CC1` [Example 342], the IC50 is 154 nM.

Turning to `[2H]C([2H])([2H])C(=O)N1CC(c2nc(-c3cncc([C@@](O)(c4ccc(C(C)C)cc4)C4(C)CN(C)C4)c3)no2)C1` [Example 343], the IC50 is 532 nM.

With `[2H]C([2H])([2H])C(=O)N1CC(C)(c2nc(-c3cncc([C@@](O)(c4ccc(C(C)C)cc4)C4(C)CN(C)C4)c3)no2)C1` [Example 344], the IC50 is 441 nM.

With `[2H]C([2H])([2H])C(=O)N1CC(F)(c2nc(-c3cncc([C@@](O)(c4ccc(C(C)C)cc4)C4(C)CN(C)C4)c3)no2)C1` [Example 345], the IC50 is 252 nM.

Turning to `CC(C)c1ccc([C@](O)(c2cncc(-c3noc(C(C)(C)N4CCOCC4)n3)c2)C2(C)CN(C)C2)cc1` [Example 346], the IC50 is 62.5 nM.

For the compound `CC(C)c1ccc([C@](O)(c2cncc(-c3noc(C4CCN(C)C(=O)C4)n3)c2)C2(C)CN(C)C2)cc1` (stereo partly drawn) [Example 347], the IC50 came out at 120 nM.

With `CC(=O)N1CC[C@H](c2nc(-c3cncc([C@@](O)(c4ccc(C(C)C)cc4)C4(C)CN(C)C4)c3)no2)C1` [Example 348], the IC50 is 135 nM.

Turning to `CC(=O)N1CC[C@@H](c2nc(-c3cncc([C@@](O)(c4ccc(C(C)C)cc4)C4(C)CN(C)C4)c3)no2)C1` [Example 349], the IC50 stood at 113 nM.

Regarding `CC(=O)NC(C)(C)c1nc(-c2cncc([C@@](O)(c3ccc(C(C)C)cc3)C3(C)CN(C)C3)c2)no1` [Example 350], the IC50 amounted to 242 nM.

Regarding `CC(C)c1ccc([C@](O)(c2cncc(-c3noc(C4CCN(Cc5ccccc5)C4=O)n3)c2)C2(C)CN(C)C2)cc1` (stereo partly drawn) [Example 351], the IC50 came to 27.6 nM.

Take `CC(C)c1ccc([C@](O)(c2cncc(-c3noc(C4(C)CCN(C)C4=O)n3)c2)C2(C)CN(C)C2)cc1` (stereo partly drawn) [Example 352]: the IC50 came to 110 nM.

For the compound `CC(C)CN1CC(c2nc(-c3cncc([C@@](O)(c4ccc(C(C)C)cc4)C4(C)CN(C)C4)c3)no2)CC1=O` (stereo partly drawn) [Example 353], the IC50 was found to be 40.3 nM.

Regarding `CC(C)c1ccc([C@](O)(c2cncc(-c3noc(C4CC(=O)N(Cc5ccco5)C4)n3)c2)C2(C)CN(C)C2)cc1` (stereo partly drawn) [Example 354], the IC50 is 29 nM.
